Consider one substance from patent publication US11708562B2, “Differentiation of human embryonic stem cells” (Janssen Biotech, Inc., priority 2006, dated 2023).

Assay [1] has as its system human embryonic stem cell line H1. The assay is described as follows: FACS protein expression following 5-day activin A treatment (Table IIC). It counts as cell-based. The settings on record: 5-day AA treatment. How it is done: (§1) The level of expression of definitive endoderm markers was examined by PCR (FIGS. 1A and 1B), FACS (results summarized in Table I), and immunohistochemistry (FIGS. 2A, 2B and 2C).
(§2) Adhered cells were removed from culture plates by five-minute incubation with TrypLE™ Express solution (Invitrogen, CA). Released cells were resuspended in human embryonic stem cell culture medium and recovered by centrifugation, followed by washing and resuspending the cells in a staining buffer consisting of 2% BSA, 0.05% sodium azide in PBS (Sigma, MO). As appropriate, the cells were Fc-receptor blocked for 15 minutes using a 0.1% γ-globulin (Sigma) solution. […] Controls included appropriate isotype matched antibodies, unstained cells, and cells stained only with secondary conjugated antibody. All incubations with antibodies were performed for 30 mins at 4° C. after which the cells were washed with the staining buffer. Samples that were stained with unconjugated primary antibodies were incubated for an additional 30 mins at 4° C. with secondary conjugated PE or -APC labeled antibodies. See Table I for a list of secondary antibodies used. Washed cells were pelleted and resuspended in the staining buffer, and the cell surface molecules were identified using a FACS Array (BD Biosciences) instrument, collecting at least 10,000 events.

Assay [2] has as its system human embryonic stem cell line H7. In words: FACS protein expression with time following activin A treatment (Table IIB). Conditions: AA 100 ng/ml. It counts as cell-based. How it is done:
as §1, §2

On to “Activin A: a member of the TGFβ superfamily; growth factor (R&D Systems) used to differentiate human embryonic stem cells”, for which, in assay [1], the “CXCR4+ cells (FACS)” value is on record as 92.78%, the “CXCR4+/C-kit+ cells (FACS)” value is listed as 92.90%, the “CXCR4+/CD9+ cells (FACS)” value stood at 7.03% and the “CXCR4+/CD99+ cells (FACS)” value is 88.78%. For the same substance, the “CXCR4+/EPCAM cells (FACS)” value in assay [1] is 87.99%. In assay [2] (1-day), the “CXCR4+ C-Kit+ cells (FACS)” value is recorded as 2.97%, the “CXCR4+ CD9+ cells (FACS)” value came to 8.13%, the “CXCR4+ EPCAM+ cells (FACS)” value turned out to be 14.58% and the “CXCR4+ cells (FACS)” value is given as 6%. In addition, in assay [2] (3-day), the “CXCR4+ C-Kit+ cells (FACS)” value is 31.56%, the “CXCR4+ CD9+ cells (FACS)” value is recorded as 24.11%, the “CXCR4+ EPCAM+ cells (FACS)” value was found to be 36.67% and the “CXCR4+ cells (FACS)” value came out at 38%. Further, in assay [2] (5-day), the “CXCR4+ C-Kit+ cells (FACS)” value came out at 55.21%, the “CXCR4+ CD9+ cells (FACS)” value is on record as 2.1%, the “CXCR4+ EPCAM+ cells (FACS)” value is 54.5% and the “CXCR4+ cells (FACS)” value turned out to be 65.5%.
